From paper PMC3381009 (Journal of Medicinal Chemistry, 2012)

Tests used:
[1] = target: Mycobacterium tuberculosis glutamine synthetase (MtGS) (Mycobacterium tuberculosis, UniProt P9WN39); experiment: MtGS inhibition screening and IC50 determination; assay type: biochemical; settings: for inhibitory activity in the MtGS enzymatic assay (in words): inhibition screening at 25 μM; for fold increase of affinity/potency (IC50) compared to 7a: MtGS IC50 ratio vs 7a
MtGS = settings: read-out: IC50 obtained in the HTS study; HTS assay conditions; cited from earlier work

Chain of Mycobacterium tuberculosis glutamine synthetase (MtGS) (P9WN39 whole entry): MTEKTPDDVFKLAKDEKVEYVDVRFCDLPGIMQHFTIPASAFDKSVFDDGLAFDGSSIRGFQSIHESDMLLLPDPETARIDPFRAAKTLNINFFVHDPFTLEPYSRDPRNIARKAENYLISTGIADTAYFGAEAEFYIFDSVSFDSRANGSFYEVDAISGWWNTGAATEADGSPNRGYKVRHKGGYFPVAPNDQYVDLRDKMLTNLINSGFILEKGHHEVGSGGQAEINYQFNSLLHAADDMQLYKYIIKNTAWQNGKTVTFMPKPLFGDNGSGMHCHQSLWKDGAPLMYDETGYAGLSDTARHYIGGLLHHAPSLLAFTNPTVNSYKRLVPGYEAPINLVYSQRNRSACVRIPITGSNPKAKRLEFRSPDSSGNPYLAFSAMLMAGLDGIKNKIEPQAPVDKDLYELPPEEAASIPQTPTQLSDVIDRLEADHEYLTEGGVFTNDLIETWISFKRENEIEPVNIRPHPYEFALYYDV

SMILES | inhibitory activity in the MtGS enzymatic assay (in words) [1] | also measured
COc1ccc2cc(-c3nc(C)[nH]c3-c3ccncc3)ccc2c1 [Compound 7f] | inactive | –
COc1ccc2cc(-c3nc(CO)[nH]c3-c3ccncc3)ccc2c1 [Compound 7i] | inactive | –
COc1ccc2cc(-c3nc(C(C)(C)C)[nH]c3-c3ccnc(N)c3)ccc2c1 [Compound 11a, 4-(2-tert-Butyl-4-(6-methoxynaphthalen-2-yl)-1H-imidazol-5-yl)pyridin-2-amine] | – | fold increase of affinity/potency (IC50) compared to 7a [1]: over 60 fold
COc1ccc2cc(-c3nc[nH]c3-c3ccncc3)ccc2c1 [Compound 7g] | inactive | –
COc1ccc2cc(-c3nc(C(C)(C)C)[nH]c3-c3ccncc3)ccc2c1 [Compound 7a] | – | fold higher IC50 than the IC50 obtained in the HTS study [1]: 30 fold; IC50 (MtGS): 100 nM
COc1ccc2cc(-c3nc(C(C)(C)C)[nH]c3-c3ccnc(N(C)C)c3)ccc2c1 [Compound 11c] | inactive | –
COc1ccc2cc(-c3nc(COCc4ccccc4)[nH]c3-c3ccncc3)ccc2c1 [Compound 7h] | did not show any inhibitory activity | –
CNc1cc(-c2[nH]c(C(C)(C)C)nc2-c2ccc3cc(OC)ccc3c2)ccn1 [Compound 11b] | – | fold loss in activity compared to 11a [1]: 100 fold
COc1ccc2cc(-c3nc(C(C)(C)C)[nH]c3-c3ccnc(F)c3)ccc2c1 [Compound 10] | – | fold increase of affinity/potency (IC50) compared to 7a [1]: ~2.5 fold
